Source: patent US20120196766A1, “Therapeutic Use of Farnesyltransferase Inhibitors and Methods of Monitoring the Efficacy Thereof” (priority 2004, published 2012)

Key:
[1] = tested on: NF-κB-LH transfected HEK293 cells; test: NF-κB reporter gene assay; assay type: cell-based; conditions: tipifarnib 2 or 5 μM for 18 hours, TNF-α 10 ng/ml for 4 hours
Experimental: HEK293 cells were transfected with the NF-κB-LH plasmid (Biomyx) using Lipofectamine 2000, and stable clones were selected by culture in hygromycin (176 μg/ml). The resulting NF-κB-LH-transfected cells were seeded in DMEM/10% FCS in 96-well plates for use in luciferase reporter assays. On the following day, cells were treated with tipifarnib for 18 hours, then stimulated with TNF-α (10 ng/ml) for 4 hours, after which NF-κB activity was measured using the Steady-Glo® luciferase reporter assay system (Promega). NF-κB activation was calculated as the fold-induction by TNF-α over unstimulated control samples.

[2] = tested on: THP-1 cells; test: cDNA microarray analysis of LPS-induced gene transcription in THP-1 cells; assay type: cell-based, Human; conditions: LPS 100 ng/ml, tipifarnib 5 μM
Experimental: THP-1 cells were cultured in RPMI1640 medium, supplemented with 10% FBS/100 units/ml Penicillin/10 μg/ml Streptomycin at 37° C., under 5% CO2. […] For the untreated control group (no LPS, no compound) and LPS alone group, equivalent volumes of DMSO were added to the medium. Cells were cultured at 37° C. and pellets were collected at 0 hr, 1 hr, 3 hr, 6 hr, 12 hr & 24 hr. Cell pellets were stored at −80° C. if RNA isolation was not conducted immediately. For experiments to study cytokine secretion in culture supernatants, THP-1 cells were washed twice with PBS, resuspended at 3.4×10^5/ml and cultured in 96-well plates at 250 μL, per well at 37° C. […] Supernatants were collected at different time points as indicated in the figures and were kept at ≦−20° C. until analysis of cytokine production.
Total RNA was isolated using RNeasy mini kit from QIAGEN (Valencia, Calif.) according to the manufacturer's instructions. RNA samples were stored at −80° C.
Five μg of total RNA was linearly amplified to double-stranded cDNA using T7-based amplification. The cDNA was purified using the QIAquick 96 PCR purification kit (QIAGEN Valencia, Calif.), and used to generate amplified (a) RNA using AmpliScribe™ T7 High Yield Transcription Kit (Epicentre, Madison, Wis.). Ten μg of purified aRNA was reverse transcribed to cDNA using the SuperScript RTII kit (Invitrogen) and labeled by direct incorporation of Cy3-dCTP. The generated cDNA probe was used for hybridizing to cDNA microarrays.
Each clone was spotted in duplicate on the array.

Cn1cncc1C(N)(c1ccc(Cl)cc1)c1ccc2c(c1)c(-c1cccc(Cl)c1)cc(=O)n2C (single isomer, unassigned; (+)) [tipifarnib, (+)-6-[amino(4-chlorophenyl)(1-methyl-1H-imidazol-5-yl)methyl]-4-(3-chlorophenyl)-1-methyl-2(1H)-quinolinone]
TNF-α induced NF-κB activity [1]: not inhibited | Fold-change (tipifarnib/LPS vs LPS) ABCB8 ([2]; 1 hr): 1.07 | Fold-change (tipifarnib/LPS vs LPS) B2M ([2]; 1 hr): 1.15 | Fold-change (tipifarnib/LPS vs LPS) C3AR1 ([2]; 1 hr): 1.00 | Fold-change (tipifarnib/LPS vs LPS) CCL2 ([2]; 1 hr): −1.07 | Fold-change (tipifarnib/LPS vs LPS) CCL3 ([2]; 1 hr): −1.07 | Fold-change (tipifarnib/LPS vs LPS) CCL4 ([2]; 1 hr): 1.07 | Fold-change (tipifarnib/LPS vs LPS) CCL8 ([2]; 1 hr): −1.07 | Fold-change (tipifarnib/LPS vs LPS) CCND1 ([2]; 1 hr): 1.00 | Fold-change (tipifarnib/LPS vs LPS) CXCL11 ([2]; 1 hr): 1.00 | Fold-change (tipifarnib/LPS vs LPS) GNPNAT1 ([2]; 1 hr): 1.00 | Fold-change (tipifarnib/LPS vs LPS) IER3 ([2]; 1 hr): 1.32 | Fold-change (tipifarnib/LPS vs LPS) IFI16 ([2]; 1 hr): 1.07 | Fold-change (tipifarnib/LPS vs LPS) IFIT1 ([2]; 1 hr): 1.00 | Fold-change (tipifarnib/LPS vs LPS) IFNB1 ([2]; 1 hr): −1.23 | Fold-change (tipifarnib/LPS vs LPS) IGFBP3 ([2]; 1 hr): 1.00 | Fold-change (tipifarnib/LPS vs LPS) IL1B ([2]; 1 hr): 1.07 | Fold-change (tipifarnib/LPS vs LPS) IL1RN ([2]; 1 hr): −1.15 | Fold-change (tipifarnib/LPS vs LPS) IL8 ([2]; 1 hr): −1.07 | Fold-change (tipifarnib/LPS vs LPS) KCNK17 ([2]; 1 hr): −1.07 | Fold-change (tipifarnib/LPS vs LPS) LAP3 ([2]; 1 hr): −1.07 | Fold-change (tipifarnib/LPS vs LPS) LGR7 ([2]; 1 hr): 1.23 | Fold-change (tipifarnib/LPS vs LPS) MMP9 ([2]; 1 hr): −1.07 | Fold-change (tipifarnib/LPS vs LPS) MX1 ([2]; 1 hr): 1.00 | Fold-change (tipifarnib/LPS vs LPS) MYD88 ([2]; 1 hr): 1.07 | Fold-change (tipifarnib/LPS vs LPS) NEXN ([2]; 1 hr): 1.00 | Fold-change (tipifarnib/LPS vs LPS) NFKB2 ([2]; 1 hr): −1.07 | Fold-change (tipifarnib/LPS vs LPS) PLAUR ([2]; 1 hr): 1.00 | Fold-change (tipifarnib/LPS vs LPS) PTX3 ([2]; 1 hr): 1.15 | Fold-change (tipifarnib/LPS vs LPS) S100A9 ([2]; 1 hr): 1.00 | Fold-change (tipifarnib/LPS vs LPS) STAT1 ([2]; 1 hr): 1.23 | Fold-change (tipifarnib/LPS vs LPS) TAP1 ([2]; 1 hr): −1.23 | Fold-change (tipifarnib/LPS vs LPS) TAP2 ([2]; 1 hr): 1.07 | Fold-change (tipifarnib/LPS vs LPS) TRIM22 ([2]; 1 hr): 1.00 | Fold-change (tipifarnib/LPS vs LPS) UBE2L6 ([2]; 1 hr): 1.00 | Fold-change (tipifarnib/LPS vs LPS) ABCB8 ([2]; 3 hr): 1.00 | Fold-change (tipifarnib/LPS vs LPS) B2M ([2]; 3 hr): 1.00 | Fold-change (tipifarnib/LPS vs LPS) C3AR1 ([2]; 3 hr): 1.07 | Fold-change (tipifarnib/LPS vs LPS) CCL2 ([2]; 3 hr): −1.32 | Fold-change (tipifarnib/LPS vs LPS) CCL3 ([2]; 3 hr): 1.00 | Fold-change (tipifarnib/LPS vs LPS) CCL8 ([2]; 3 hr): 1.00 | Fold-change (tipifarnib/LPS vs LPS) CCND1 ([2]; 3 hr): −1.07 | Fold-change (tipifarnib/LPS vs LPS) CXCL11 ([2]; 3 hr): −1.07 | Fold-change (tipifarnib/LPS vs LPS) GNPNAT1 ([2]; 3 hr): 1.00 | Fold-change (tipifarnib/LPS vs LPS) IFI16 ([2]; 3 hr): 1.00 | Fold-change (tipifarnib/LPS vs LPS) IFIT1 ([2]; 3 hr): 1.00 | Fold-change (tipifarnib/LPS vs LPS) IFNB1 ([2]; 3 hr): −1.15 | Fold-change (tipifarnib/LPS vs LPS) IGFBP3 ([2]; 3 hr): −1.07 | Fold-change (tipifarnib/LPS vs LPS) IL1B ([2]; 3 hr): 1.32 | Fold-change (tipifarnib/LPS vs LPS) IL1RN ([2]; 3 hr): −1.15 | Fold-change (tipifarnib/LPS vs LPS) IL8 ([2]; 3 hr): −1.23 | Fold-change (tipifarnib/LPS vs LPS) KCNK17 ([2]; 3 hr): −1.15 | Fold-change (tipifarnib/LPS vs LPS) LAP3 ([2]; 3 hr): −1.07 | Fold-change (tipifarnib/LPS vs LPS) LGR7 ([2]; 3 hr): −1.15 | Fold-change (tipifarnib/LPS vs LPS) LY6E ([2]; 3 hr): −1.15 | Fold-change (tipifarnib/LPS vs LPS) MMP9 ([2]; 3 hr): −1.07 | Fold-change (tipifarnib/LPS vs LPS) MX1 ([2]; 3 hr): −1.07 | Fold-change (tipifarnib/LPS vs LPS) MYD88 ([2]; 3 hr): −1.15 | Fold-change (tipifarnib/LPS vs LPS) NEXN ([2]; 3 hr): 1.00 | Fold-change (tipifarnib/LPS vs LPS) NFKB2 ([2]; 3 hr): 1.23 | Fold-change (tipifarnib/LPS vs LPS) PLAUR ([2]; 3 hr): −1.23 | Fold-change (tipifarnib/LPS vs LPS) PTX3 ([2]; 3 hr): −1.15
